From article PMC11061460, “Acyl pyrazole sulfonamides as new antidiabetic agents: synthesis, glucosidase inhibition studies, and molecular docking analysis” (Frontiers in Chemistry, 2024) come the findings set out here.

One data set relates to β-glucosidase. In words: β-glucosidase inhibitory assay in 96-well plates (p-NPG, absorbance 405 nm). The conditions noted are these: concentration of 1 mM; end concentration of 100 µM in each well. The data set is classed as biochemical. How it is done:
An already established method was employed to perform α- and β-glucosidase inhibitory assays in 96-well plates ([Kazmi et al., 2017]). In this assay, phosphate buffer (0.07 M pH 6.8) was used to prepare 2.5 U/mL of α-glucosidase, 2.0 U/mL of β-glucosidase, and substrate 4-nitrophenyl-β-D-glucopyranoside (p-NPG) (10 mM) solutions. In addition, 1 mM solution of each test compound was prepared in 10% DMSO to achieve an end concentration of 100 µM in each well. Initially, 10 µL of the respective enzyme was incubated with 10 µL of test compounds for 5 min at 37 °C. Subsequently, 10 µL of p-NPG was added in each well followed by an incubation period of 30 min at 37 °C before adding 80 µL of Na2CO3 (200 mM) as a stop solution to each well. The absorbance was measured at 405 nm, and the percentage inhibition for each of the test compounds was determined by the following equation.
Percentage inhibition = 100–[Slope of test compound/Slope of enzyme control] × 100.
Acarbose was used as a standard drug for evaluating the efficacy of test compounds against α- and β-glucosidase. The inhibitory concentration 50 (IC50) for each of the test compound was determined by GraphPad prism version 10.0.

In a further data set the target is α-glucosidase (Saccharomyces cerevisiae, UniProt P53341). The data set can be described thus: biochemical. It counts as biochemical.
Chain of α-glucosidase (P53341 whole entry): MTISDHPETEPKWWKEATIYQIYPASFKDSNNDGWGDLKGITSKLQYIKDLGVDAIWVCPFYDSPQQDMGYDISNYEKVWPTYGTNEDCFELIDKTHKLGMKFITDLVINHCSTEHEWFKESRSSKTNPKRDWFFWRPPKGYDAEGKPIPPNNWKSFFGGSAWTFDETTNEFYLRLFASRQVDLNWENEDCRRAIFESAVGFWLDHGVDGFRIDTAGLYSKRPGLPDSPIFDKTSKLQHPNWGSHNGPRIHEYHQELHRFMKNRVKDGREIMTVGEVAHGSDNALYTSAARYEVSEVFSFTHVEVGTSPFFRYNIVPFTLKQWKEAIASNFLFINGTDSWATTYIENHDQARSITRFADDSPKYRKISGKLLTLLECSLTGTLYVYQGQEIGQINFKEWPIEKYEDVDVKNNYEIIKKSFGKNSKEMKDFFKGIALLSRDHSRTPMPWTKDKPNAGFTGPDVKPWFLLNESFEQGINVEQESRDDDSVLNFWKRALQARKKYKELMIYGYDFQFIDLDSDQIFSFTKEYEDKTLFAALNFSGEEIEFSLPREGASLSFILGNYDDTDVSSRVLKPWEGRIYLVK
Where [1] appears, read: read-out: α-glucosidase inhibition IC50 ± SEM.

Read-outs that look alike come from different tables or passages of the source.

Turning to `C[C@H]1O[C@H](O[C@H]2[C@H](O)[C@@H](O)[C@@H](O[C@H]3[C@H](O)[C@@H](O)C(O)O[C@@H]3CO)O[C@@H]2CO)[C@H](O)[C@@H](O)[C@@H]1N[C@H]1C=C(CO)[C@@H](O)[C@H](O)[C@H]1O` (stereo partly shown) [Acarbose, reference compound], the “β-glucosidase inhibition %age inhibition” value in the data set on β-glucosidase was found to be 63.7%.
As to `Cc1nn(C(=O)c2ccc(Cl)cc2)c(C)c1/N=N/c1ccc(S(N)(=O)=O)cc1` [Compound 5a, (E)-4-((1-(4-Chlorobenzoyl)-3,5-dimethyl-1H-pyrazol-4-yl)diazenyl)benzenesulfonamide], in the data set with β-glucosidase, the “β-glucosidase inhibition %age inhibition” value stood at 34.3%. Besides, the IC50 (commonly the concentration needed to halve the response being measured) against α-glucosidase worked out at 1.13 ± 0.06 µM.
Consider `Cc1nn(C(=O)c2cccc(Cl)c2)c(C)c1/N=N/c1ccc(S(N)(=O)=O)cc1` [Compound 5b, (E)-4-((1-(3-Chlorobenzoyl)-3,5-dimethyl-1H-pyrazol-4-yl)diazenyl)benzenesulfonamide], for which the “β-glucosidase inhibition %age inhibition” value in the data set with β-glucosidase is 32.1%. The same compound returned an IC50 against α-glucosidase of 2.22 ± 0.11 µM. Besides, the “reduction in activity on switching chlorine from para- to meta-position” value at α-glucosidase (relative to 5a) was found to be 50%.
As for `COc1ccc(C(=O)n2nc(C)c(/N=N/c3ccc(S(N)(=O)=O)cc3)c2C)cc1` [Compound 5c, (E)-4-((1-(4-Methoxybenzoyl)-3,5-dimethyl-1H-pyrazol-4-yl)diazenyl)benzenesulfonamide], the melting point (commonly the temperature of the solid-liquid transition) was 202 to 205 °C. Besides, in the data set on β-glucosidase, the “β-glucosidase inhibition %age inhibition” value worked out at 12.9%. The IC50 on α-glucosidase (setting [1]) stood at 3.29 ± 0.09 µM.
The compound `COc1ccc(C(=O)n2nc(C)c(/N=N/c3ccc(S(N)(=O)=O)cc3)c2C)cc1OC` [Compound 5d, (E)-4-((1-(3,4-Dimethoxybenzoyl)-3,5-dimethyl-1H-pyrazol-4-yl)diazenyl)benzenesulfonamide] yielded a melting point of 226 to 228 °C. In addition, the “β-glucosidase inhibition %age inhibition” value with β-glucosidase is on record as 18.5%. In addition, the midpoint of inhibition against α-glucosidase, the IC50, lay at 4.53 ± 0.12 µM.
On to `Cc1nn(C(=O)c2ccc([N+](=O)[O-])cc2)c(C)c1/N=N/c1ccc(S(N)(=O)=O)cc1` [Compound 5e, (E)-4-((3,5-Dimethyl-1-(4-nitrobenzoyl)-1H-pyrazol-4-yl)diazenyl)benzenesulfonamide], for which the melting point lay within 231 to 233 °C. Besides, the “β-glucosidase inhibition %age inhibition” value with β-glucosidase worked out at 11.7%. For the same compound, at α-glucosidase, the “potency relative to acarbose (times/fold more potent)” value was “eight”. Also, the IC50 at α-glucosidase (setting [1]) came to 4.11 ± 0.19 µM.
Take `Cc1nn(C(=O)c2cccc([N+](=O)[O-])c2)c(C)c1/N=N/c1ccc(S(N)(=O)=O)cc1` [Compound 5f, (E)-4-((3,5-Dimethyl-1-(3-nitrobenzoyl)-1H-pyrazol-4-yl)diazenyl)benzenesulfonamide]: the “β-glucosidase inhibition %age inhibition” value in the data set with β-glucosidase is recorded as 27.4%. At α-glucosidase (setting [1]), the IC50 is 2.77 ± 0.24 µM.
In the case of `Cc1ccccc1C(=O)n1nc(C)c(/N=N/c2ccc(S(N)(=O)=O)cc2)c1C` [Compound 5g, (E)-4-((3,5-Dimethyl-1-(2-methylbenzoyl)-1H-pyrazol-4-yl)diazenyl)benzenesulfonamide], the “β-glucosidase inhibition %age inhibition” value with β-glucosidase stood at 21.0%. Further, at α-glucosidase, the IC50 came to 3.47 ± 0.43 µM.
In the case of `Cc1ccc(C(=O)n2nc(C)c(/N=N/c3ccc(S(N)(=O)=O)cc3)c2C)cc1` [Compound 5h, (E)-4-((3,5-Dimethyl-1-(4-methylbenzoyl)-1H-pyrazol-4-yl)diazenyl)benzenesulfonamide], the melting point is 218 to 220 °C. The “β-glucosidase inhibition %age inhibition” value with β-glucosidase is listed as 14.6%. The concentration for half-maximal inhibition (IC50) on α-glucosidase (setting [1]) came out at 9.22 ± 0.45 µM.
`Cc1nn(C(=O)c2ccc(Br)cc2)c(C)c1/N=N/c1ccc(S(N)(=O)=O)cc1` [Compound 5i, (E)-4-((1-(4-Bromobenzoyl)-3,5-dimethyl-1H-pyrazol-4-yl)diazenyl)benzenesulfonamide]: the melting point lay within 235 to 237 °C. Besides, the “β-glucosidase inhibition %age inhibition” value with β-glucosidase is given as 11.2%. This compound also registered an IC50 against α-glucosidase of 19.1 ± 1.07 µM.
With `COc1cccc(C(=O)n2nc(C)c(/N=N/c3ccc(S(N)(=O)=O)cc3)c2C)c1` [Compound 5j, (E)-4-((1-(3-Methoxybenzoyl)-3,5-dimethyl-1H-pyrazol-4-yl)diazenyl)benzenesulfonamide], in the data set with β-glucosidase, the “β-glucosidase inhibition %age inhibition” value was 7.55%. Also, the 50% inhibitory concentration (IC50) against α-glucosidase turned out to be 17.9 ± 1.16 µM.
`Cc1n[nH]c(C)c1/N=N/c1ccc(S(N)(=O)=O)cc1` [Compound 5k, (E)-4-((3,5-Dimethyl-1H-pyrazol-4-yl)diazenyl)benzenesulfonamide] displayed a melting point of 188 to 190 °C. The “β-glucosidase inhibition %age inhibition” value in the data set on β-glucosidase came to 25.1%. The compound also returned an IC50 against α-glucosidase of 28.3 ± 1.45 µM.
